Among the data in patent US20240218022A1, “ANTI-VISTA MACROCYCLIC PEPTIDES AND COMPOSITIONS” (BRISTOL-MYERS SQUIBB COMPANY, priority 2022, published 2024) are IC50 values, retold here.

Where two headings read alike, the source gives them in different places. Starred links: 1 amine or outer side, 2 acyl side, 3 side chain; linkers in the order of their positions; H or OH if unused. Positions of bridges follow the written chain, without caps; N, C: chain ends. Non-standard residues stand in square brackets, D forms with d. Residues, ends and D or L forms follow the SMILES beside them. ξ: configuration not given here. γGlu = O=C(O)[C@H](CCC(=O)[*:2])N[*:1]; 2Nal = N[C@@H](Cc1ccc2ccccc2c1)C(=O)O; βAsp = O=C(O)[C@H](CC(=O)[*:2])N[*:1]; Gly(cPent) = N[C@H](C(=O)O)C1CCCC1; Ile(3ξ) = CCC(C)[C@H](N)C(=O)O; Ahp(2) = CCCCC[C@H](N)C(=O)O; NMeNle = CCCC[C@H](NC)C(=O)O; Tle = CC(C)(C)[C@H](N)C(=O)O; NMeS = CN[C@@H](CO)C(=O)O; NHexGly = CCCCCCNCC(=O)O; Nle = CCCC[C@H](N)C(=O)O; Orn = NCCC[C@H](N)C(=O)O; Aun = NCCCCCCCCCCC(=O)O; Aze = O=C(O)[C@@H]1CCN1; AEEA = NCCOCCOCC(=O)O

This assay deals with T1, mouse VISTA (mVISTA) (Mus musculus, UniProt Q9D659).
T1 construct: expressed in transfected cells; host or cells: Human embryonic kidney 293T cells
T1 sequence (Q9D659 33-308): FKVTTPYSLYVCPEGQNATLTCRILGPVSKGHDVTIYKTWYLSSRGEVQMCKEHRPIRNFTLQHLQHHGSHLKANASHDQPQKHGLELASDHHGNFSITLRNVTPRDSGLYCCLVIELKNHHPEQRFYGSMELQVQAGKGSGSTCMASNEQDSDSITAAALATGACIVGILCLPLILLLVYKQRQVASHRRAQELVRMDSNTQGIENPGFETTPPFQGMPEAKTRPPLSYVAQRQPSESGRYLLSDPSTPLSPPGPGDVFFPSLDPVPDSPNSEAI
Briefly: Cell-Based Binding High-Content Assay For mVISTA (HC CBA mVISTA). The essentials:
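Competition of compound with a biotinylated peptide (final 2 nM, 30 min at RT) for binding to mVISTA on 293T cells, run under no-wash or wash (1 h compound preincubation then removal) formats. Readout by Alexa 647–streptavidin imaging on a high-content platform; four-parameter logistic fit gave IC50.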

Consider `CCCCCCN1CC(=O)N[C@@H](Cc2ccc(O)cc2)C(=O)N[C@@H](CCCC)C(=O)N[C@@H](CC(N)=O)C(=O)N[C@@H](CCCNC(=N)N)C(=O)N[C@@H](CC(C)C)C(=O)N[C@@H](C2CCCC2)C(=O)N2CCC[C@H]2C(=O)N[C@@H](C(C)C)C(=O)N[C@@H](CC(=O)O)C(=O)N[C@H](C(=O)NCC(=O)O)CSCC(=O)N[C@@H](Cc2ccc3ccccc3c2)C(=O)N[C@@H](Cc2c[nH]c3ccccc23)C(=O)N[C@@H](CC(=O)O)C1=O` [compound 1181] ({CH2CO}-[2Nal]WD[NHexGly]Y[Nle]NRL[Gly(cPent)]PVDCG-OH; thioether N-14), for which the IC50 (usually the midpoint of a concentration-inhibition curve) (read-out: HC CBA mVISTA IC50) is 0.0159 µM.
For the molecule `CCCCCCN1CC(=O)N[C@@H](Cc2ccc(O)cc2)C(=O)N[C@@H](CCCC)C(=O)N[C@@H](CC(N)=O)C(=O)N[C@@H](CCCNC(=N)N)C(=O)N(C)[C@@H](CCCC)C(=O)N[C@@H](CCCCC)C(=O)N2CC[C@H]2C(=O)N[C@@H](C(C)CC)C(=O)N[C@@H](CO)C(=O)N[C@H](C(=O)N[C@@H](CC(=O)NCCOCCOCC(=O)NCCCCCCCCCCC(=O)O)C(=O)O)CSCC(=O)N[C@@H](Cc2ccccc2)C(=O)N[C@@H](Cc2c[nH]c3ccccc23)C(=O)N[C@@H](CC(=O)O)C1=O` (some centres unmarked) [Example 2183] ({CH2CO}-FWD[NHexGly]Y[Nle]NR[NMeNle][Ahp(2)][Aze][Ile(3ξ)]SC[βAsp][AEEA][Aun]-OH; thioether N-14), the half-inhibitory concentration (IC50) (read-out: HC CBA mVISTA IC50) worked out at 0.0169 µM.
For the molecule `CCCCCCN1CC(=O)N[C@@H](Cc2ccc(O)cc2)C(=O)N[C@@H](CCCCC)C(=O)N[C@@H](CC(N)=O)C(=O)N[C@@H](CCCN)C(=O)N(C)[C@@H](CCCC)C(=O)N[C@@H](CCCCC)C(=O)N2CCC[C@H]2C(=O)N[C@@H](C(C)(C)C)C(=O)N[C@@H](CO)C(=O)N[C@H](C(=O)N[C@@H](CCC(=O)NCCCCCCCCCCC(=O)O)C(=O)O)CSCC(=O)N[C@@H](Cc2ccccc2)C(=O)N[C@@H](Cc2c[nH]c3ccccc23)C(=O)N[C@@H](CC(=O)O)C1=O` [Example 2144] ({CH2CO}-FWD[NHexGly]Y[Ahp(2)]N[Orn][NMeNle][Ahp(2)]P[Tle]SC[γGlu][Aun]-OH; thioether N-14), under “read-out: HC CBA mVISTA IC50”, the IC50 is 0.039 µM.
For `CCCCCCN1CC(=O)N[C@@H](Cc2ccc(O)cc2)C(=O)N[C@@H](CCCC)C(=O)NCC(=O)N[C@@H](CCCNC(=N)N)C(=O)N[C@@H](CC(C)C)C(=O)N[C@@H](CCCCC)C(=O)N2CCC[C@H]2C(=O)N[C@@H](C(C)C)C(=O)NCC(=O)N[C@H](C(=O)NCC(=O)O)CSCC(=O)N[C@@H](Cc2ccccc2)C(=O)N[C@@H](Cc2ccc(O)cc2)C(=O)N[C@@H](CC(=O)O)C1=O` [Example 1023] ({CH2CO}-FYD[NHexGly]Y[Nle]GRL[Ahp(2)]PVGCG-OH; thioether N-14), for the setting “293T cells expressing mouse VISTA, competition with biotinylated peptide (2 nM), read-out: HC CBA mVISTA IC50”, the IC50 was 0.031 µM.
On to `CCCCCCN1CC(=O)N[C@@H](Cc2ccc(O)cc2)C(=O)N[C@@H](CCCCC)C(=O)NCC(=O)N[C@@H](CCCNC(=N)N)C(=O)N(C)[C@@H](CCCC)C(=O)N[C@@H](CCCCC)C(=O)N2CCC[C@H]2C(=O)N[C@@H](C(C)C)C(=O)N[C@@H](CO)C(=O)N[C@H](C(=O)NCC(N)=O)CSCC(=O)N[C@@H](Cc2ccccc2)C(=O)N[C@@H](Cc2ccc(O)cc2)C(=O)N[C@@H](CC(=O)O)C1=O` [Example 1079] ({CH2CO}-FYD[NHexGly]Y[Ahp(2)]GR[NMeNle][Ahp(2)]PVSCG-NH2; thioether N-14), for which the half-maximal inhibitory concentration (IC50) (293T cells expressing mouse VISTA, competition with biotinylated peptide (2 nM), read-out: CBA mVISTA IC50) was determined as 0.0246 µM.
Regarding `CCCCCCN1CC(=O)N[C@@H](Cc2ccc(O)cc2)C(=O)N[C@@H](CC(C)C)C(=O)N[C@@H](CC(N)=O)C(=O)N[C@@H](CCCNC(=N)N)C(=O)N(C)[C@@H](CO)C(=O)N[C@@H](CCCCC)C(=O)N2CCC[C@H]2C(=O)N[C@@H](C(C)(C)C)C(=O)N[C@@H](CC(=O)O)C(=O)N[C@H](C(=O)N[C@@H](CC(=O)NCCOCCOCC(=O)N[C@@H](CC(=O)O)C(=O)NCCOCCOCC(=O)NCCCCCCCCCCC(=O)O)C(=O)O)CSCC(=O)N[C@@H](Cc2ccc3ccccc3c2)C(=O)N[C@@H](Cc2ccc(O)cc2)C(=O)N[C@@H](CC(=O)O)C1=O` [compound 2070] ({CH2CO}-[2Nal]YD[NHexGly]YLNR[NMeS][Ahp(2)]P[Tle]DC[βAsp][AEEA]D[AEEA][Aun]-OH; thioether N-14), the IC50 (cell-based binding high-content assay, mVISTA, read-out: HC CBA miPrISTA IC50) worked out at 0.0416 µM.
On to `CCCCCCN1CC(=O)N[C@@H](Cc2ccc(O)cc2)C(=O)N[C@@H](CCCC)C(=O)N[C@@H](CC(N)=O)C(=O)N[C@@H](CCCNC(=N)N)C(=O)N[C@@H](CCCCN)C(=O)N[C@@H](CCCCC)C(=O)N2CCC[C@H]2C(=O)N[C@@H](C(C)(C)C)C(=O)N[C@@H](CC(=O)O)C(=O)N[C@H](C(=O)NCCOCCOCC(=O)N[C@@H](CCC(=O)NCCOCCOCC(=O)NCCCCCCCCCCC(=O)O)C(=O)O)CSCC(=O)N[C@@H](Cc2ccccc2)C(=O)N[C@@H](Cc2c[nH]c3ccccc23)C(=O)N[C@@H](CC(=O)O)C1=O` [compound 2254] ({CH2CO}-FWD[NHexGly]Y[Nle]NRK[Ahp(2)]P[Tle]DC[AEEA][γGlu][AEEA][Aun]-OH; thioether N-14), for which the IC50 (read-out: HC CBA mVISTA IC50) amounted to 0.0279 µM.
The same measure, in the same setting: to `CCCCCCN1CC(=O)N[C@@H](Cc2ccc(O)cc2)C(=O)N[C@@H](CC(C)C)C(=O)NCC(=O)N[C@@H](CCCNC(=N)N)C(=O)N[C@@H](CC(C)C)C(=O)N[C@@H](CCCCC)C(=O)N2CCC[C@H]2C(=O)N[C@@H](C(C)C)C(=O)N2CCC[C@H]2C(=O)N[C@H](C(=O)NCC(=O)O)CSCC(=O)N[C@@H](Cc2ccccc2)C(=O)N[C@@H](Cc2ccc(O)cc2)C(=O)N[C@@H](CC(=O)O)C1=O` [compound 1124] ({CH2CO}-FYD[NHexGly]YLGRL[Ahp(2)]PVPCG-OH; thioether N-14) belongs 0.0323 µM; to `CCCCCCN1CC(=O)N[C@@H](Cc2ccc(O)cc2)C(=O)N[C@@H](CCCC)C(=O)N[C@@H](CC(N)=O)C(=O)N[C@@H](CCCNC(=N)N)C(=O)N(C)[C@@H](CCCC)C(=O)N[C@@H](CCCCC)C(=O)N2CCC[C@H]2C(=O)N[C@@H](C(C)(C)C)C(=O)N[C@@H](C(C)C)C(=O)N[C@H](C(=O)NCCOCCOCC(=O)N[C@@H](CCC(=O)NCCOCCOCC(=O)NCCCCCCCCCCC(=O)O)C(=O)O)CSCC(=O)N[C@@H](Cc2ccccc2)C(=O)N[C@@H](Cc2c[nH]c3ccccc23)C(=O)N[C@@H](CC(=O)O)C1=O` [compound 2239] ({CH2CO}-FWD[NHexGly]Y[Nle]NR[NMeNle][Ahp(2)]P[Tle]VC[AEEA][γGlu][AEEA][Aun]-OH; thioether N-14), 0.0486 µM.
Regarding `CCCCCCN1CC(=O)N[C@@H](Cc2ccc(O)cc2)C(=O)N[C@@H](CCCC)C(=O)N[C@@H](CC(N)=O)C(=O)N[C@@H](CCCNC(N)=O)C(=O)N2Cc3ccccc3C[C@H]2C(=O)N[C@@H](CCCCC)C(=O)N2CCC[C@H]2C(=O)N[C@@H](C(C)C)C(=O)N[C@@H](CO)C(=O)N[C@H](C(=O)NCCOCCOCC(=O)N[C@@H](CC(=O)O)C(=O)NCCOCCOCC(=O)NCCCCCCCCCCC(=O)O)CSCC(=O)N[C@@H](Cc2ccccc2)C(=O)N[C@@H](Cc2c[nH]c3ccccc23)C(=O)N[C@@H](CC(=O)O)C1=O` (stereo in doubt) [compound 2311], for the setting “cell-based binding high-content assay, read-out: HC CBA miPrISTA IC50”, the half-inhibitory concentration (IC50) is 0.0284 µM.
Consider `CCCCCCN1CC(=O)N[C@@H](Cc2ccc(O)cc2)C(=O)N[C@@H](CC(C)C)C(=O)N[C@@H](CC(N)=O)C(=O)N[C@@H](CCCN)C(=O)N(C)[C@@H](CCCC)C(=O)N[C@@H](CCCCC)C(=O)N2CCC[C@H]2C(=O)N[C@@H](C(C)(C)C)C(=O)N[C@@H](CO)C(=O)N[C@H](C(=O)NCCOCCOCC(=O)N[C@@H](CCC(=O)NCCOCCOCC(=O)NCCCCCCCCCCC(=O)O)C(=O)O)CSCC(=O)N[C@@H](Cc2ccccc2)C(=O)N[C@@H](Cc2c[nH]c3ccccc23)C(=O)N[C@@H](CC(=O)O)C1=O` [compound 2280] ({CH2CO}-FWD[NHexGly]YLN[Orn][NMeNle][Ahp(2)]P[Tle]SC[AEEA][γGlu][AEEA][Aun]-OH; thioether N-14), for which the concentration for half-maximal inhibition (IC50) (read-out: HC CBA mVISTA IC50) was determined as 0.0455 µM.
